Measured values: ChEMBL document CHEMBL4138191, “Organic arsenicals target thioredoxin reductase followed by oxidative stress and mitochondrial dysfunction resulting in apoptosis” (Eur J Med Chem, 2018)

Columns and labels:
HL-60 [1] = test: Induction of mitochondrial membrane potential loss in human HL60 cells at 0.75 uM after 24 hrs by JC-1 staining-based flow cytometry (reference value: 28.6%); assay type: functional
HL-60 [2] = test: Induction of mitochondrial membrane potential loss in human HL60 cells at 0.75 uM after 24 hrs by JC-1 staining-based flow cytometry (reference value: 24.3%); assay type: functional

O=C(Nc1ccc([As]2SCCCS2)cc1)c1ccccc1O
Activity (HL-60 [1]): 51.8%

Oc1ccccc1/C=N/c1ccc([As]2SCCCS2)cc1
Activity (HL-60 [2]): 49.1%
